Measured values reported in the NIST ThermoML archive (doi:10.1016/j.jct.2015.05.002).
± gives the expanded uncertainty stated by the source.

Test: mn = molality of the nth substance listed, in mol/kg
Conditions: 101.3 kPa, Liquid; for speed of sound: Frequency=3 MHz, Sing-around technique in a fixed-path interferometer; for mass density: Vibrating tube method

O=C[O-].[NH3+]CCCO [3-hydroxypropylammonium formate] + O
Conditions	mass density, m1 = 0.1 [kg/m3]	mass density, m1 = 0.21 [kg/m3]	mass density, m1 = 0.3 [kg/m3]	mass density, m1 = 0.42 [kg/m3]	speed of sound, m1 = 0.1 [m/s]	speed of sound, m1 = 0.21 [m/s]	speed of sound, m1 = 0.3 [m/s]	speed of sound, m1 = 0.42 [m/s]
293.15 K	999.816 ± 0.65	1001.61 ± 0.65	1003.08 ± 0.65	1005.09 ± 0.66	1489.6 ± 2.7	1496.4 ± 2.7	1502.6 ± 2.7	1510.7 ± 2.7
298.15 K	–	1000.35 ± 0.65	–	1003.64 ± 0.65	–	1508.3 ± 2.7	–	1520 ± 2.7
303.15 K	–	998.914 ± 0.65	–	1002.15 ± 0.65	–	1519.6 ± 2.7	–	1530.5 ± 2.7
308.15 K	–	997.259 ± 0.65	–	1000.45 ± 0.65	–	1529.4 ± 2.7	–	1540.3 ± 2.7
313.15 K	–	995.402 ± 0.64	–	998.562 ± 0.65	–	1538 ± 2.7	–	1547.9 ± 2.7
318.15 K	–	993.291 ± 0.64	–	996.504 ± 0.64	–	1545 ± 2.7	–	1554.3 ± 2.7
